The record followed here is BindingDB's records for doi:10.7270/Q2CN728N (Nmmlsc, 2008).

The target of the first test is T1, Bcl-2-related protein A1 (Homo sapiens, UniProt Q16548).
T1 sequence (Q16548 whole entry): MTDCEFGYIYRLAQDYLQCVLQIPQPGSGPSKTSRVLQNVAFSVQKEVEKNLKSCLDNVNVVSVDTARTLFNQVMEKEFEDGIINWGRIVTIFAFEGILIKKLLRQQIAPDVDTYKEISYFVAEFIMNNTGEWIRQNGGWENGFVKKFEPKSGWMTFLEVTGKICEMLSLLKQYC
Briefly: Bfl-1/Bim complex disruptors – biochemical, multiplexed, bead-based flow cytometry, dose response (AID 1320). To be noted: inactive by the depositor's call; pH 7.4; 4 °C.
As to `COc1ccc(C2=Nc3cccc4cccc(c34)N2)cc1` [MLS000551954], it took 6.49 µM to reach a half-maximal effect (EC50).
As for `CCOc1cccc(CNc2ccc(O)cc2)c1OCc1ccccc1Cl` [MLS000580486], the EC50 came out at 1.61 µM.
Turning to `CCCC(=O)OCCNc1cc(Sc2nccn2C)c2nonc2c1[N+](=O)[O-]` [MLS000584441], the EC50 came to 18.1 µM. This EC50 is about 11-fold higher than that of the compound before.
For the compound `Cc1ccc(/C=C2/NC(=O)N(Cc3ccccc3)C2=O)o1` [MLS000698643], the EC50 was 2.73 µM.
Still for that read-out and setting: the value for `COc1ccc(/C=C/C(=O)c2cc(Br)ccc(=O)c2O)cc1` [MLS000702099] was 14 µM.
In turn, `COc1cccc2c1C(=O)C=C(C)C2=O` [MLS000702735] returned an EC50 of 28.3 µM.
The same measure, in the same setting: with `COC(=O)CCC(=O)Nc1sc(Cc2ccccc2)c(C)c1C(N)=O` [MLS000708819] the figure was 0.97 µM.
The compound `CCOC(=O)c1cc2c(=O)n3ccccc3nc2n(Cc2ccco2)/c1=N/C(=O)c1ccccc1OC` [MLS000729830] had an EC50 of 34.5 µM.
On to `Cc1ccc(/C=C/C(=O)c2ccccc(=O)c2O)cc1C` [MLS000756172], for which the EC50 is 14.9 µM.
In the case of `CC(=O)Nc1ccc(-n2cc(-c3ccccc3)[nH]c2=S)cc1` [MLS001001946], the EC50 amounted to 0.47 µM.
Take `CCc1cccc(CC)c1-n1c(-c2cccnc2)n[nH]c1=S` [MLS001006773]: the EC50 is 1.09 µM.
`COc1ccccc1-n1c(-c2ccccc2)c[nH]c1=S` [MLS001007615]: the EC50 worked out at 0.61 µM.
In the case of `O=C(Cn1c2ccccc2c(=O)c2ccccc21)N/N=C/c1ccc(N2CCCC2)c([N+](=O)[O-])c1` [N'-[(1E)-(3-nitro-4-pyrrolidin-1-ylphenyl)methylene]-2-(9-oxoacridin-10(9H)-yl)acetohydrazide], a half-maximal response (EC50) required 41.1 µM.
Turning to `O=C(Nc1ccc(N2CCOCC2)cc1)Nc1ccc2nc(-c3ccco3)c(-c3ccco3)nc2c1` [N-(2,3-di-2-furyl-6-quinoxalinyl)-N'-[4-(4-morpholinyl)phenyl]urea], the EC50 is 19.5 µM. Against the preceding compound, the EC50 is about 2.1-fold lower.
The same measure, in the same setting: the value for `O=C(Nc1nnc(COc2ccc(Cl)cc2)s1)c1ccco1` [N-[5-[(4-chloranylphenoxy)methyl]-1,3,4-thiadiazol-2-yl]furan-2-carboxamide] was 8.07 µM; that for `Cc1cccc(OCC(=O)NCC(=O)NN=Cc2cc(Br)ccc2OCc2ccccc2)c1` [N-[(5-bromanyl-2-phenylmethoxy-phenyl)methylideneamino]-2-[2-(3-methylphenoxy)ethanoylamino]ethanamide] was 4.63 µM.
`Nc1ccccc1/N=c1/ssnc1Cl` [N-[(5Z)-4-chloro-5H-1,2,3-dithiazol-5-ylidene]benzene-1,2-diamine]: a half-maximal response (EC50) required 4.72 µM.
In the case of `CC(C)C(=O)NC(c1ccccc1)c1cc([N+](=O)[O-])c2cccnc2c1O` (configuration not stated) [N-[(8-hydroxy-5-nitro-7-quinolinyl)-phenylmethyl]-2-methylpropanamide], the EC50 came to 26.5 µM.
Regarding `Cc1onc(-c2ccccc2)c1C(=O)Nc1nnc(COc2ccc(Cl)cc2)s1` [N-{5-[(4-chlorophenoxy)methyl]-1,3,4-thiadiazol-2-yl}-5-methyl-3-phenyl-4-isoxazolecarboxamide], the EC50 stood at 4.36 µM.
As for `Cc1ccc(-c2cc(-c3ccc4c(c3)OCO4)c(C#N)c(N)n2)o1` [SMR000001529], the EC50 came out at 1.88 µM.
In turn, `CSc1nnc2c3cc(C)ccc3n(Cc3ccccc3)c2n1` [SMR000046397] showed an EC50 of 22.7 µM. This EC50 lies about 12-fold higher than the previous one.
Compound `NC(=O)c1c(N)sc2c1CCCCC2` [SMR000066289] came in with an EC50 of 3.02 µM.
The compound `Nc1c(C(=O)NCc2ccco2)sc2nc3c(cc12)C(=O)CCC3` [SMR000072940] registered an EC50 of 57.3 µM.
The compound `CN(C)c1ccc(Nc2nc(-c3cccnc3)cs2)cc1` [SMR000104797] displayed an EC50 of 0.85 µM. This EC50 lies about 67-fold lower than the previous one.
Turning to `CNC(=O)c1c(N)sc2c1CCCCC2` [SMR000111700], the EC50 is 4.09 µM.
`CNc1ccc(Br)cc(C(=O)/C=C/c2cc(OC)ccc2OC)c1=O` [SMR000115626] registered an EC50 of 15 µM.
For the compound `O=C(Nc1ccc2nc(-c3ccco3)c(-c3ccco3)nc2c1)NC1CC1` [SMR000118524], the EC50 is 3.9 µM.
Regarding `O=C(NCCO)c1ccc2nc(-c3ccco3)c(-c3ccco3)nc2c1` [SMR000121771], the midpoint of the response, the EC50, lay at 3.18 µM.
Take `N#Cc1ccc(/N=c2/ssnc2Cl)cc1` [SMR000130044]: the EC50 was determined as 67.5 µM.
On to `COc1ccc(OC)c(-n2c(S)nnc2-c2ccc(C)cc2)c1` [SMR000155418], for which the EC50 came to 3.05 µM.
For the compound `Nc1ccc(C2=Nc3cccc4cccc(c34)N2)cc1` [SMR000175908], a half-maximal response (EC50) required 16.1 µM.
The compound `S=c1[nH]cc(-c2ccccc2)n1-c1ccccc1` [SMR000196363] gave an EC50 of 1.92 µM.
As for `CCC(=O)OCCNc1cc(Sc2nccn2C)c2nonc2c1[N+](=O)[O-]` [SMR000207033], the EC50 turned out to be 26.8 µM. Against the preceding compound, the EC50 is about 14-fold higher.

Staying with this test, now noted: pH 7.4; 4 °C.
Take `O=[N+]([O-])c1c(NCCO)cc(Sc2nc3ccccc3s2)c2nonc12` [MLS000520993]: the EC50 came out at 0.12 µM.
As for `O=[N+]([O-])c1c(NCCCO)cc(Sc2nc3ccccc3s2)c2nonc12` [MLS000520994], the EC50 came to 0.61 µM.
The compound `CN(CCO)c1cc(Sc2nc3ccccc3s2)c2nonc2c1[N+](=O)[O-]` [MLS000520995] displayed an EC50 of 1.48 µM.
`CC(=O)OCCCNc1cc(Sc2nc3ccccc3s2)c2nonc2c1[N+](=O)[O-]` [MLS000521052] yielded an EC50 of 0.08 µM. Against the preceding compound, the EC50 is about 18-fold lower.
The compound `O=C1C=CC(C=NNC(=O)C(=Cc2ccc([N+](=O)[O-])cc2)NC(=O)c2ccccc2)C(O)=C1O` (configuration not stated) [MLS000530401] had an EC50 of 5.22 µM.
Regarding `COc1ccc2c3c(cccc13)N(C)N=C2C` [MLS000554700], the EC50 worked out at 0.61 µM.
In turn, `Cc1ccc(/C=C/C(=O)Nc2ccc([N+](=O)[O-])c(NC(=O)/C=C/c3ccc(C)o3)c2)o1` [MLS000578867] had an EC50 of 0.83 µM.
For `Cc1ccc(-c2cc(C(=O)Nc3nccs3)c3ccccc3n2)o1` [MLS000579660], the EC50 came to 9.21 µM.
Same read-out and setting: the value for `Cc1nnc(Sc2cc(NCCCO)c([N+](=O)[O-])c3nonc23)s1` [MLS000674027] was 0.13 µM.
`Fc1ccc(C2=Nc3cccc4cccc(c34)N2)cc1` [MLS000687139] displayed an EC50 of 7.63 µM.
On the same count and under the same terms, the value for `CCN(C(=O)COC(=O)c1cc(-c2ccc(C)o2)nc2ccccc12)C1CCS(=O)(=O)C1` (configuration not stated) [MLS001003409] was 3.38 µM; that for `CC1=CC(=O)c2c(O)ccc(O)c2C1=O` [MLS001048870] was 2.87 µM; that for `c1ccc(Nc2cccc(Nc3ccccc3)n2)cc1` [N,N'-diphenyl-2,6-pyridinediamine] was 1.17 µM.
In turn, `CC(=O)c1ccc(NC(=O)c2ccc3nc(-c4ccco4)c(-c4ccco4)nc3c2)cc1` [N-(4-acetylphenyl)-2,3-di-2-furyl-6-quinoxalinecarboxamide] showed an EC50 of 2.34 µM.
`Clc1nss/c1=N\c1ccc(Br)cc1` [N-(4-bromophenyl)-4-chloro-5-dithiazolimine] yielded an EC50 of 9.18 µM.
`COc1ccc(CCNC(=O)c2ccc3nc(-c4ccco4)c(-c4ccco4)nc3c2)cc1OC` [N-[2-(3,4-dimethoxyphenyl)ethyl]-2,3-di-2-furylquinoxaline-6-carboxamide] came in with an EC50 of 4.3 µM. Compared with the last compound, the EC50 is about 2.1-fold lower.
Take `COc1ccccc1NC1=C(NC(C)=O)C(=O)c2ccccc2C1=O` [N-[3-(2-methoxyanilino)-1,4-dioxonaphthalen-2-yl]acetamide]: the EC50 amounted to 1.41 µM.
`O=C(NC1=C(NC2CCS(=O)(=O)C2)C(=O)c2ccccc2C1=O)c1ccccc1` (configuration not stated) [N-[3-[(1,1-dioxo-3-thiolanyl)amino]-1,4-dioxo-2-naphthalenyl]benzamide] showed an EC50 of 6.59 µM. This EC50 is about 4.7-fold higher than that of the compound before.
`CC(=O)NC1=C(NC2CCS(=O)(=O)C2)C(=O)c2ccccc2C1=O` (configuration not stated) [N-[3-[(1,1-dioxothiolan-3-yl)amino]-1,4-dioxonaphthalen-2-yl]acetamide] yielded an EC50 of 1.55 µM.
Same read-out and setting: with `Cc1cccc(C(=O)/N=c2\c(C#N)cc3c(=O)n4cccc(C)c4nc3n2Cc2ccco2)c1` [N-[3-cyano-1-(furan-2-ylmethyl)-10-methyl-5-oxodipyrido[3,4-c:1',2'-f]pyrimidin-2-ylidene]-3-methylbenzamide] the figure was 9.69 µM; with `COc1cc(CNc2ccc(N3CCCC3)cc2)cc(Cl)c1OC` [N-[(3-chloranyl-4,5-dimethoxy-phenyl)methyl]-4-pyrrolidin-1-yl-aniline], 5.3 µM; with `CCC(=O)N(CC)C1C(=O)C(=O)c2ccccc2C1=O` (configuration not stated) [N-ethyl-N-(1-hydroxy-3,4-dioxo-2-naphthalenyl)propanamide], 0.08 µM.
On to `CC(C)(C)NC(=O)COc1ccc(CNc2ccc3[nH]c(O)nc3c2)cc1` [N-tert-butyl-2-[4-[[(2-oxidanylidene-1,3-dihydrobenzimidazol-5-yl)amino]methyl]phenoxy]ethanamide], for which the EC50 was 2.87 µM.
For the compound `COc1cc(/N=c2/ssnc2Cl)cc(OC)c1OC` [SMR000025034], a half-maximal response (EC50) required 3.63 µM.
On the same count and under the same terms, the value for `Cc1cc2nn(-c3cccc4ccccc34)nc2cc1N` [SMR000076237] was 1.34 µM; that for `COc1cc(/N=c2/ssnc2Cl)c(OC)cc1Cl` [SMR000130043] was 6.53 µM; that for `CCC(=O)OCCNc1cc(Sc2nc3ccccc3s2)c2nonc2c1[N+](=O)[O-]` [SMR000131460] was 0.08 µM.
Still for that read-out and setting: with `CCOC(=O)C1=C(Cc2ccc(OC)cc2)C(=O)c2ccccc2C1=O` [SMR000136995] the figure was 5.04 µM; with `O=C(Nc1cccc(C(F)(F)F)c1)c1ccc2nc(-c3ccco3)c(-c3ccco3)nc2c1` [SMR000142217], 2.96 µM.
Same read-out and setting: with `COC(=O)c1c(C(=O)OC)c2cccc3cc(-c4ccccc4)c4ccc1c4n32` [SMR000161417] the figure was 1.12 µM; with `O=c1[nH]c2ccc(N=Cc3c(O)ccc4cc(Br)ccc34)cc2[nH]1` [SMR000171789], 4.46 µM.
`CCOC(=O)CSC1=NC(=O)/C(=C\c2ccc(OC(C)=O)cc2)S1` [SMR000180755] had a half-maximal effective concentration (EC50) of 3.33 µM. The EC50 values of the last two compounds are within 1.5-fold of each other.
`C#CCn1cc(C=C2C(=O)c3ccccc3C2=O)c2ccccc21` [SMR000196125]: the response was half-maximal at 9.57 µM (EC50).
In the case of `CCC(=O)OCCNc1cc(Sc2nc3ccccc3[nH]2)c2nonc2c1[N+](=O)[O-]` [SMR000207032], the EC50 came to 1.63 µM.
